Experimental data reported in patent US12239621B2, “Prevention of kidney injury induced by hemolytic reaction” (Niigata University, priority 2021, dated 2025).

Columns and labels:
hemolysis model mice [1] = conditions: cilastatin 400 mg/kg i.p. at 0, 3 and 6 h after phenylhydrazine, vs normal saline control group (FIG. 1)
Experimental: Phenylhydrazine (97% phenylhydrazine, Sigma-Aldrich Inc.) was dissolved in PBS in a concentration of 5 mg/ml to prepare a PBS solution, and the solution was intraperitoneally given to C57BL/6 mice (male, aged 10-12 weeks) so that the dose of phenylhydrazine was 1 mg/10 g, thereby constructing homolysis models.
To the hemolysis models, a) 400 mg/kg (diluted in 100 μL of normal saline) of cilastatin (Sigma-Aldrich Inc.), or b) 100 μL of normal saline was intraperitoneally administered at the time of phenylhydrazine dosing, 3 hours after the dosing, and 6 hours after the dosing. For each a) and b), 6 mice were used.
Then, for each individual in a) cilastatin-treated group and b) normal saline-treated group (control group), urine was pooled using a metabolic cage for 24 hours after phenylhydrazine dosing, and the obtained urine samples were collected.
The urine and serum were stored at −80° C. until analysis and measured for urinary KIM-1 and blood urea nitrogen. The measurements were conducted by Oriental Yeast Co., Ltd.

[2] = target: binding between megalin and Hx (Rattus norvegicus, UniProt P98158); conditions: QCM, 1 mg cilastatin injected into 200 μL buffer in advance, rat Hx (FIG. 2-1)
Excerpt: (§1) Binding specificity between megalin and each ligand (hemoglobin, α1M, Hx), and the possible binding inhibition by cilastatin were verified using the quartz crystal microbalance (QCM) method by reference to the method described in PTL 2.
(§2) For the ligands to be verified, hemoglobin (LifeSpan Biosciences Inc., Rat Hemoglobin Native Protein, LS-G11201) and Hx (Sino Biological Inc., Rat Hemopexin/HPX protein (His Tag 81025-R08H)) were used. […]
(§3) After each of the ligand- or BSA-immobilized quartz crystal sensor was mounted in the measurement instrument AFFINIX® Q8 (Initium Inc.) and the frequency was confirmed to be stable, 8 μL of a 0.1 mg/mL solution of megalin purified from Sprague-Dawley (SD) rat kidneys according to the method of Orlando et al. was injected and frequency was measured with time.
(§4) More specifically, the megalin solution was reacted to each of the ligand-immobilized quartz crystal sensors placed in a chamber with 200 μL of buffer, and frequency was measured.
(§5) Additionally, 1 mg of cilastatin was injected into buffer in advance, each of the ligand-immobilized quartz crystal sensors was mounted in the measurement instrument, and after the frequency was confirmed to be stable, the megalin solution was injected and frequency was measured with time, whereby the antagonistic activity of cilastatin against the binding of each ligand to megalin was analyzed. […]

[3] = target: binding between megalin and hemoglobin (Rattus norvegicus, UniProt P98158); conditions: QCM, 1 mg cilastatin injected into 200 μL buffer in advance, rat hemoglobin (FIG. 2-1)
Excerpt: as §1, §2, §3, §4, §5

[4] = target: binding between α1M and megalin (Rattus norvegicus, UniProt P98158); conditions: QCM, 1 mg/200 μL cilastatin injected into buffer in advance, rat α1M (FIG. 2-2)
Excerpt: as §1

mice (C57BL/6) = conditions: cilastatin sodium 400 mg/kg i.p.
Experimental: Cilastatin was administered to mice and changes in concentrations of each ligand in urine were observed.
Five mice (male, aged 12 weeks C57BL/6) were intraperitoneally administered with 400 mg/kg (diluted in 100 μL, of normal saline, cilastatin-treated group) of cilastatin sodium (Sigma-Aldrich Japan K.K., C5743), and then put in a metabolic cage for 3 hours to collect urine, and the urines of 5 mice were combined. Additionally, 100 μL, of normal saline was administered to another group of 5 mice (control group), and the same experiment as above was conducted.
Proteins were isolated from the obtained urine samples by electrophoresis (SDS-polyacrylamide gel), reductively alkylated (using dithiothreitol and iodoacetamide), digested with trypsin, and the obtained peptides were extracted to obtain a solid.
To the obtained solid, 15 μL, of 0.3% formic acid (FA) was added, shaken for 5 minutes, sonicated for 1 minute, and shaken again for 5 minutes. The resultant mixture was spun down, applied to a membrane filter having a pore diameter of 0.45 μm (ULtra free-MC, HV, 0.45 μm, Millipore), centrifuged at 10,000 rpm for 5 minutes, and the sample passed through the filter was subjected to LCMS analysis.
The analysis method described in Ohara et al., 2018, PLoS One, vol. 13, 1, e0204160 was referred to. The analysis method is shown below.
AnaLyst® TF1.6 (AB SCIEX) was used as an LCMS/MS data acquisition and analysis software, and the obtained raw data were converted to a peak list file (mgf file format), whereby MS/MS Ion Search (MIS search) was conducted using Matrix Science Mascot daemon, Mascot server 2.2.1. The sequence data base used was Uniprot, Swiss-Prot. Significance threshold was set to 0.05 (false discovery rate of less than 5%), and the proteins having 2 or more peptides exceeding the identification standard were listed as identified proteins.
Raw data were acquired 2 times per sample at LCMS to cover the issue of analysis reproducibility at LCMS, and the peak list files obtained from the 2 runs were combined and analyzed using Mascot (Ohara et al., 2018, PLoS One, vol. 13, 1, e0204160).
To the proteins identified in common in 2 groups when compared, the spectral count method was used, which is a label-free comparative, semiquantitative analysis method utilizing a principle that a large number of peptide fragments will be identified in those expressed at high levels, resulting in the increase in the number of MS/MS. In other words, the proteins identified in both of the cilastatin-treated group and control group were calculated for an SpC/L ratio (spectral abundance factor: SAF) of the cilastatin-treated group/control group, and the proteins having an SpC/L ratio of 2.0 or more were listed as the proteins abundant in urine of the cilastatin-treated group.

hemolysis model mice [5] = conditions: cilastatin 400 mg/kg i.p. at 0, 3 and 6 h after phenylhydrazine, kidneys at 24 h, immunostaining (FIG. 5)
Experimental: Twenty-four hours after phenylhydrazine dosing, a portion containing a renal pedicle was sliced to 3 mm thickness from the right kidney and fixed with 4% paraformaldehyde phosphate buffer.
(§6) In line with Test Example 1, 1 mg/10 g of phenylhydrazine was given to C57BL/6 (male, aged 10-12 weeks), thereby constructing hemolysis model mice.
(§7) To the hemolysis models, a) 400 mg/kg (diluted in 100 μL, of normal saline) of cilastatin (Sigma-Aldrich Inc.), or b) 100 μL, of normal saline was intraperitoneally administered at the time of phenylhydrazine dosing, 3 hours after the dosing, and 6 hours after the dosing.

hemolysis model mice [6] = conditions: cilastatin 400 mg/kg i.p. at 0, 3 and 6 h after phenylhydrazine, kidneys at 24 h, immunostaining (FIG. 7)
Experimental: as §6, §7
In the present test example, thinly sliced fixed samples obtained from the remaining right kidney of the same animal were immunostained (500-fold diluted) using an anti-α1M antibody (Gene Tex: GTX101068).

[7] = mice, 3 h urine pooled from 5 mice, LCMS

binding between megalin and hemoglobin, sequence (P98158 26-4660): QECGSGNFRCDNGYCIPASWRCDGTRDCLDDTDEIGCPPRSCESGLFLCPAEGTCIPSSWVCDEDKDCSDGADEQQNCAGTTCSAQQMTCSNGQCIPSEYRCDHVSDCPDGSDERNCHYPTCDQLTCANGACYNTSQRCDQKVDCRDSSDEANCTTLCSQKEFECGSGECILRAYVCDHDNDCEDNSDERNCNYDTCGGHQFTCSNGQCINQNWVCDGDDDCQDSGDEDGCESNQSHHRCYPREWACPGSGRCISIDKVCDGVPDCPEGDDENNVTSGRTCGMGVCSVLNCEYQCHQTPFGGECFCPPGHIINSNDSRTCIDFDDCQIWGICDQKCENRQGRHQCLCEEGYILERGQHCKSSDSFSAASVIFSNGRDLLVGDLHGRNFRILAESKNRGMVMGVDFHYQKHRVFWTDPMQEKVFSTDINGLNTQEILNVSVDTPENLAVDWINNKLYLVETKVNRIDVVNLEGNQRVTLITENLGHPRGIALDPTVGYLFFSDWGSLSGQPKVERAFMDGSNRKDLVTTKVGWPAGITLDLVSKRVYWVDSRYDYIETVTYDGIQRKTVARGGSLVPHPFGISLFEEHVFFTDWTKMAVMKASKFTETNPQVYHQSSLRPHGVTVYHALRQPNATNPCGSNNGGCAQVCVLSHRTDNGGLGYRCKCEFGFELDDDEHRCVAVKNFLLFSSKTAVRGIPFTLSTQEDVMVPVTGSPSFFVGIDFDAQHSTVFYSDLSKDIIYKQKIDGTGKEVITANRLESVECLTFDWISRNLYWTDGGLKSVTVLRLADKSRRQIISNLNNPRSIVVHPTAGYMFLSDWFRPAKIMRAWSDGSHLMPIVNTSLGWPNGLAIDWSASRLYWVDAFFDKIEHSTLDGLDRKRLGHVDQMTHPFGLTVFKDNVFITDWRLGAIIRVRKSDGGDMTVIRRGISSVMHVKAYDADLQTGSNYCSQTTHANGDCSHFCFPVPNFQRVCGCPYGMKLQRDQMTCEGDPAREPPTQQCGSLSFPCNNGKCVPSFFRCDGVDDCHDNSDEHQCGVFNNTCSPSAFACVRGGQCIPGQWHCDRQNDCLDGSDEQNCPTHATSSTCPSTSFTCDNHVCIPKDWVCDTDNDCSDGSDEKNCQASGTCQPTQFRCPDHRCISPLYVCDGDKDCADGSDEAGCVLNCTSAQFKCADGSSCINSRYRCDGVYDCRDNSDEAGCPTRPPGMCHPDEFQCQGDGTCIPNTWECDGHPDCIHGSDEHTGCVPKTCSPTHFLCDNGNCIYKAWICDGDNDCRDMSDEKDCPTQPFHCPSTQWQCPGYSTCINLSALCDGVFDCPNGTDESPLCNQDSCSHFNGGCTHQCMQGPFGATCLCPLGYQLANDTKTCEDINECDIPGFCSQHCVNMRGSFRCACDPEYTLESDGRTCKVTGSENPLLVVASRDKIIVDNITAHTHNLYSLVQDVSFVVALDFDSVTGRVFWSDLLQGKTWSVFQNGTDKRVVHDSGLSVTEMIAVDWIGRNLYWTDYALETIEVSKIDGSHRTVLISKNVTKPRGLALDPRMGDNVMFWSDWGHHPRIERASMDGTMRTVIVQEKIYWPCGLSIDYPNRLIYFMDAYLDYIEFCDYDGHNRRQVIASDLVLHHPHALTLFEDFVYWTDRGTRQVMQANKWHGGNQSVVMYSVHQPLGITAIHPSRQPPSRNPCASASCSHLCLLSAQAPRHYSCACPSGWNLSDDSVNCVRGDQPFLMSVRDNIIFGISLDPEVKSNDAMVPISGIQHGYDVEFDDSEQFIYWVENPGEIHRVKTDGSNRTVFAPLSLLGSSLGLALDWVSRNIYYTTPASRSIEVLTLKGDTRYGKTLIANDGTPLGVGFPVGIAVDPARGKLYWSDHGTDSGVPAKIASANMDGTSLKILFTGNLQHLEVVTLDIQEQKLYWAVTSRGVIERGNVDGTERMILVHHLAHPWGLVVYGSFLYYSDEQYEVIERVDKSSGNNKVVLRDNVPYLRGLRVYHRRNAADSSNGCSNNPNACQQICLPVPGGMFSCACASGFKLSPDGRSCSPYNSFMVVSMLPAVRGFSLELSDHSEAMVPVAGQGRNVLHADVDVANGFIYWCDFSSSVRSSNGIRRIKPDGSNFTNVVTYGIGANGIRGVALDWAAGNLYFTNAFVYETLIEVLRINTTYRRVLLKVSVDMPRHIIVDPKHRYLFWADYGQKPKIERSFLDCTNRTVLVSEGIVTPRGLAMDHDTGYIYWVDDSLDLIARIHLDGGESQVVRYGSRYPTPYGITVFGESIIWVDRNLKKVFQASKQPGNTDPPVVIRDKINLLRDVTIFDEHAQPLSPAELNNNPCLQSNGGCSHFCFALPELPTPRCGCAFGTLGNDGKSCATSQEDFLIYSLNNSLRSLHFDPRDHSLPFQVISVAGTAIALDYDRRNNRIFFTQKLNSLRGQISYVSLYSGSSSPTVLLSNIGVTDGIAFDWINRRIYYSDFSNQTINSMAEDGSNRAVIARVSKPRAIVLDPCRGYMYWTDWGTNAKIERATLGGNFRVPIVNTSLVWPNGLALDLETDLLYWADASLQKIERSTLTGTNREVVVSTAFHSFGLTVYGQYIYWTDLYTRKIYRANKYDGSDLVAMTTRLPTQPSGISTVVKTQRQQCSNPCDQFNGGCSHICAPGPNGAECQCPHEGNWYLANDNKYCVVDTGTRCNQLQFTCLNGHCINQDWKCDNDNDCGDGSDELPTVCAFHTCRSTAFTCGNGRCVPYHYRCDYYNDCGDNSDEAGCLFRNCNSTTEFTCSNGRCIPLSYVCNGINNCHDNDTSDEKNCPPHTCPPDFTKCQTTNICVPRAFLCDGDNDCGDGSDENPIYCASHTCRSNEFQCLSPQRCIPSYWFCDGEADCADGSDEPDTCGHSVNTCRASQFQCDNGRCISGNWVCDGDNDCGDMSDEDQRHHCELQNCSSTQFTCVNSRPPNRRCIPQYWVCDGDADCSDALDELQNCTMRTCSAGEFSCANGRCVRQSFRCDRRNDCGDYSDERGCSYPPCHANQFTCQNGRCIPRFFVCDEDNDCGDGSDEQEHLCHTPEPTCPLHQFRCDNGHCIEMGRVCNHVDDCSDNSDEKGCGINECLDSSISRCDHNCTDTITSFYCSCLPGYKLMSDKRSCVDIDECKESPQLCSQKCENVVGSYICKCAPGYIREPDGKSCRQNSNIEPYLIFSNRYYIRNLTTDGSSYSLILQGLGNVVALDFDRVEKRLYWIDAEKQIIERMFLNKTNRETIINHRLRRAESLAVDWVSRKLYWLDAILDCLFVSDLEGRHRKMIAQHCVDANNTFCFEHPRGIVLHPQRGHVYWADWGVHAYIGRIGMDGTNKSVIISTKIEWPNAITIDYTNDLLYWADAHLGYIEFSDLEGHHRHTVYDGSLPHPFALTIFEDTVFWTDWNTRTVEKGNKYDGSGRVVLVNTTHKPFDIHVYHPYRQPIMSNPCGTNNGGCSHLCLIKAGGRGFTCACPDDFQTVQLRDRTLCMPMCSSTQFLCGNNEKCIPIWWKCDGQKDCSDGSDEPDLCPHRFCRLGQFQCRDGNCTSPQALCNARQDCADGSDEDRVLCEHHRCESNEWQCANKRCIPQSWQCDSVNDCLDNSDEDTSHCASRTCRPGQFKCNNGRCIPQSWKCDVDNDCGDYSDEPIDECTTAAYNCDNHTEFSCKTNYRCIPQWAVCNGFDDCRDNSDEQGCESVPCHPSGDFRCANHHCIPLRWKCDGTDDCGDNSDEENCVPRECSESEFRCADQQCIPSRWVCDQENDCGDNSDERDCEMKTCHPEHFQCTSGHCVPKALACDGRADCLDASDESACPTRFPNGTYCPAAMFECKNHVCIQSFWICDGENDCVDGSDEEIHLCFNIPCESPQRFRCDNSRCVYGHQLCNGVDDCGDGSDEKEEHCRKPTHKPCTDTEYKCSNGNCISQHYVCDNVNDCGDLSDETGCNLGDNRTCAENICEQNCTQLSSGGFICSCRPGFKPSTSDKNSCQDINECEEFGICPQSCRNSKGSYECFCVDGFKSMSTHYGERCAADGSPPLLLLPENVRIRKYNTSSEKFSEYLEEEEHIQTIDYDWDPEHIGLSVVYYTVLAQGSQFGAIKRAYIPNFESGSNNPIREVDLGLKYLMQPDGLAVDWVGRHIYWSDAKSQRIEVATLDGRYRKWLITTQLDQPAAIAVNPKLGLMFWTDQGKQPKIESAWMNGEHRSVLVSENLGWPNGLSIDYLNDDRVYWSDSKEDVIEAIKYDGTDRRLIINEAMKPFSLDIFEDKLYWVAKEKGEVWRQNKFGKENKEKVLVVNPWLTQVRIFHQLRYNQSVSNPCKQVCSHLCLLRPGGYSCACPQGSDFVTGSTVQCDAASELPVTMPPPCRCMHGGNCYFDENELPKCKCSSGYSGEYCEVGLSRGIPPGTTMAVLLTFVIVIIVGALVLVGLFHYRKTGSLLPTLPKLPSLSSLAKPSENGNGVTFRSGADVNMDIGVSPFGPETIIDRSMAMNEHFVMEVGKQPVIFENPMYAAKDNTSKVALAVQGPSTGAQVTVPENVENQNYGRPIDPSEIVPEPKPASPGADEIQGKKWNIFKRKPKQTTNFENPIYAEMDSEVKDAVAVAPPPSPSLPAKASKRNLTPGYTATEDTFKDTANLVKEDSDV
binding between megalin and Hx, sequence (P98158 26-4660): as above
binding between α1M and megalin, sequence (P98158 26-4660): as above

`CC1(C)C[C@@H]1C(=O)N/C(=C\CCCCSC[C@H](N)C(=O)O)C(=O)O` [cilastatin, (Z)-7-[[(R)-2-Amino-2-carboxyethyl]thio]-2-[[[(S)-2,2-dimethylcyclopropyl]carbonyl]amino]-2-heptenoic acid] was tested, and the “urinary KIM-1” value (hemolysis model mice [1]; 24 h pooled urine) was “lower in the cilastatin (CS)-treated group than the control group”, the blood urea nitrogen (hemolysis model mice [1]; serum at 24 h) was “lower in the cilastatin (CS)-treated group than the control group” and the “binding of megalin to Hx-immobilized quartz crystal sensor (drop of quartz crystal signals)” value [2] was “inhibited”. For the same compound, the “binding of megalin to hemoglobin-immobilized quartz crystal sensor (drop of quartz crystal signals)” value [3] was “inhibited”, the “binding of α1M to megalin-immobilized quartz crystal sensor (drop of quartz crystal signals)” value [4] was “inhibited” and the “uptake of α1M and Hx into kidney tissues” value (mice (C57BL/6); concluded from higher urinary concentrations in the cilastatin-treated group) was “inhibits”. The “SpC/L ratio (cilastatin-treated group/control group), urinary Albumin” value (mice (C57BL/6); [7]) was 1.10, the “SpC/L ratio (cilastatin-treated group/control group), urinary Clusterin” value (mice (C57BL/6); [7]) was 0.73 and the “SpC/L ratio (cilastatin-treated group/control group), urinary Hx” value (mice (C57BL/6); [7]) was 2.33. For the same compound, the “SpC/L ratio (cilastatin-treated group/control group), urinary Transcobalamin-2” value (mice (C57BL/6); [7]) was 2.33, the “SpC/L ratio (cilastatin-treated group/control group), urinary Transthyretin” value (mice (C57BL/6); [7]) was 1.00 and the “SpC/L ratio (cilastatin-treated group/control group), urinary Vitamin D-binding protein” value (mice (C57BL/6); [7]) was 0.80. For the same compound, the “SpC/L ratio (cilastatin-treated group/control group), urinary α1M” value (mice (C57BL/6); [7]) was 3.67, the “amounts of hemoglobin taken up into kidney tissues” value (hemolysis model mice [5]) was “reduced” and the “amounts of α1M taken up into kidney tissues” value (hemolysis model mice [6]) was “reduced”.
